The record followed here is patent publication US11884671B2, “Purinone compounds and their use in treating cancer” (ASTRAZENECA AB, priority 2018, dated 2024).

One assay has as its target JAK1 (Homo sapiens (Human), UniProt P23458). Nature of the assay: JAK1 enzyme assay (Z'-LYTE). In kind it is biochemical. Particulars: 75 μM ATP, arithmetic mean of two or more experiments; for IC50: read-out: JAK1 enz pIC50 (converted). As to the method:
(§1) The inhibitory activity of compounds against AURKA, AURKB, JAK1, JAK2 and JAK3 was determined in Z′-LYTE® assays run by ThermoFisher Scientific as part of their SelectScreen® Biochemical Kinase Profiling Service. The Z′-LYTE® biochemical assay format employs a fluorescence-based, coupled-enzyme format and is based on the differential sensitivity of phosphorylated and non-phosphorylated peptides to proteolytic cleavage. The peptide substrate is labeled with two fluorophores—one at each end—that make up a FRET pair. In the primary reaction, the kinase transfers the gamma-phosphate of ATP to a single tyrosine, serine or threonine residue in a synthetic FRET-peptide. In the secondary reaction, a site-specific protease recognises and cleaves non-phosphorylated FRET-peptides. Phosphorylation of FRET-peptides suppresses cleavage by the Development Reagent. Cleavage disrupts FRET between the donor (i.e., coumarin) and acceptor (i.e., fluorescein) fluorophores on the FRET-peptide, whereas uncleaved, phosphorylated FRET-peptides maintain FRET. A ratiometric method, which calculates the ratio (the Emission Ratio) of donor emission to acceptor emission after excitation of the donor fluorophore at 400 nm, is used to quantitate reaction progress. Both cleaved and uncleaved FRET-peptides contribute to the fluorescence signals and therefore to the Emission Ratio. The extent of phosphorylation of the FRET-peptide can be calculated from the Emission Ratio.
(§2) 10 point three-fold dilution compound concentration-response curves, with a top concentration of 10 μM were generated from 10 mM stocks of compound solubilised in DMSO. All assays were performed in black, non-binding, low volume Corning 384-well plates (cat. #4514, Corning), in a total reaction volume of 10 μL and 1% (v/v) final DMSO concentration. […] The kinase reaction was then quenched by the addition of 5 μL of Development Reagent (ThermoFisher Scientific proprietary). […] IC50 values were calculated using XLfit software (IDBS Ltd, Surrey, UK), with the curve fit to model number 205 (sigmoidal dose-response model).
JAK1: The 2×JAK/Tyr 06 (ThermoFisher Scientific proprietary) mixture was prepared in 50 mM HEPES pH 6.5, 0.01% BRIJ-35, 10 mM MgCl2, 1 mM EGTA, 0.02% NaN3. […] After the 1 hour Kinase Reaction incubation, 5 μL of a 1:128 dilution of Development Reagent was added.

Another assay deals with TTK (Homo sapiens (Human), UniProt P33981). Description: TTK enzyme assay (LanthaScreen Eu Kinase Binding). Particulars: arithmetic mean of two or more experiments; for IC50: read-out: TTK enz pIC50 (converted). As to the method: The inhibitory activity of compounds against TTK was determined in a LanthaScreen® Eu Kinase Binding assay run by ThermoFisher Scientific as part of their SelectScreen® Biochemical Kinase Profiling Service. The LanthaScreen® Eu Kinase Binding assay format uses binding of an Alexa Fluor® conjugate or “tracer” to a kinase, which is detected by addition of a Eu-labeled anti-tag antibody. […] The degree of FRET measured in the assay is used to determine the binding of a compound.
TTK, sequence (P33981 whole entry): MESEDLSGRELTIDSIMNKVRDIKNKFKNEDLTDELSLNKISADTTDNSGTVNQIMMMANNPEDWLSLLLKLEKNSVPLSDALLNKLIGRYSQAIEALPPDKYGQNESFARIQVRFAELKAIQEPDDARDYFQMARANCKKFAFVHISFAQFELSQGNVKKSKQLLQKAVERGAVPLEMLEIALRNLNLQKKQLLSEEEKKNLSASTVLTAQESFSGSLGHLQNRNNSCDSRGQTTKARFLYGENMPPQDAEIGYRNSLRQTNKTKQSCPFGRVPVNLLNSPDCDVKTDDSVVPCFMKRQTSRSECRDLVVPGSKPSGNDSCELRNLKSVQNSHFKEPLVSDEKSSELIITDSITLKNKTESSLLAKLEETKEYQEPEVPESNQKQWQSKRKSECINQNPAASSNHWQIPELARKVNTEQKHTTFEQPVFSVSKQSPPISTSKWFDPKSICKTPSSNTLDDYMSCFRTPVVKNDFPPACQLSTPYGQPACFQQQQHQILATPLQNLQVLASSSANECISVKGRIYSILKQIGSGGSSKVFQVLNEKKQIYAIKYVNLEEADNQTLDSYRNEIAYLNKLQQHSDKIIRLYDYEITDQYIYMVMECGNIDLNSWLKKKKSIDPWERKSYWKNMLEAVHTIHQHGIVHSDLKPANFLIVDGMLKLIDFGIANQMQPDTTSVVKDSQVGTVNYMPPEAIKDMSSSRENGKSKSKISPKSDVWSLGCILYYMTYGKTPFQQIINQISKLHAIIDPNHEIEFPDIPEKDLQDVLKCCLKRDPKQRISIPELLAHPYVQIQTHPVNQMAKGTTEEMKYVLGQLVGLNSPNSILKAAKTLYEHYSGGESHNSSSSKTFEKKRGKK
10 point three-fold dilution compound concentration-response curves, with a top concentration of 10 μM were generated from 10 mM stocks of compound solubilised in DMSO. All assays were performed in white, low volume Greiner 384-well plates (cat. #784207, Greiner), in a total reaction volume of 16 μL and 1% (v/v) final DMSO concentration. […] Plates were then read using a fluorescence plate reader. IC50 values were calculated using XLfit software (IDBS Ltd, Surrey, UK), with the curve fit to model number 205 (sigmoidal dose-response model).
A general note: Time-resolved FRET reads energy transfer from a long-lived donor to a nearby acceptor.

The next assay deals with AURKA (Aurora A) (Homo sapiens (Human), UniProt O14965). Description: Aurora-A enzyme assay (Z'-LYTE). In kind it is biochemical. The following applies: 10 μM ATP, arithmetic mean of two or more experiments; for IC50: read-out: AurA enz pIC50 (converted). As to the method: as §1, §2
AURKA (Aurora A), sequence (O14965 whole entry): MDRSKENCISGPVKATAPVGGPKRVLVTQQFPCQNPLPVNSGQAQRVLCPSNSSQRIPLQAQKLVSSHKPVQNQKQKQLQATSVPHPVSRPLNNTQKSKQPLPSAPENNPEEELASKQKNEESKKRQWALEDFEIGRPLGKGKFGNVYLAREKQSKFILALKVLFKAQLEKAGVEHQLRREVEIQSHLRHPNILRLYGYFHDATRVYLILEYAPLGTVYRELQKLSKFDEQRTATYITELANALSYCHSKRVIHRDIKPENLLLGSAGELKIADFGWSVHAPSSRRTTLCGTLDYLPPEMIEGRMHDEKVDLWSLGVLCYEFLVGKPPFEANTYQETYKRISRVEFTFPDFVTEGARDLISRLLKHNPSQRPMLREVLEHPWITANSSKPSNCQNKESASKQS
Aurora A (AurA): The 2×AURKA (Aurora A)/Ser/Thr 01 (ThermoFisher Scientific proprietary) mixture was prepared in 50 mM HEPES pH 7.5, 0.01% BRIJ-35, 10 mM MgCl2, 1 mM EGTA. […] After the 1 hour Kinase Reaction incubation, 5 μL of a 1:4096 dilution of Development Reagent was added.

JAK1, sequence (P23458 whole entry): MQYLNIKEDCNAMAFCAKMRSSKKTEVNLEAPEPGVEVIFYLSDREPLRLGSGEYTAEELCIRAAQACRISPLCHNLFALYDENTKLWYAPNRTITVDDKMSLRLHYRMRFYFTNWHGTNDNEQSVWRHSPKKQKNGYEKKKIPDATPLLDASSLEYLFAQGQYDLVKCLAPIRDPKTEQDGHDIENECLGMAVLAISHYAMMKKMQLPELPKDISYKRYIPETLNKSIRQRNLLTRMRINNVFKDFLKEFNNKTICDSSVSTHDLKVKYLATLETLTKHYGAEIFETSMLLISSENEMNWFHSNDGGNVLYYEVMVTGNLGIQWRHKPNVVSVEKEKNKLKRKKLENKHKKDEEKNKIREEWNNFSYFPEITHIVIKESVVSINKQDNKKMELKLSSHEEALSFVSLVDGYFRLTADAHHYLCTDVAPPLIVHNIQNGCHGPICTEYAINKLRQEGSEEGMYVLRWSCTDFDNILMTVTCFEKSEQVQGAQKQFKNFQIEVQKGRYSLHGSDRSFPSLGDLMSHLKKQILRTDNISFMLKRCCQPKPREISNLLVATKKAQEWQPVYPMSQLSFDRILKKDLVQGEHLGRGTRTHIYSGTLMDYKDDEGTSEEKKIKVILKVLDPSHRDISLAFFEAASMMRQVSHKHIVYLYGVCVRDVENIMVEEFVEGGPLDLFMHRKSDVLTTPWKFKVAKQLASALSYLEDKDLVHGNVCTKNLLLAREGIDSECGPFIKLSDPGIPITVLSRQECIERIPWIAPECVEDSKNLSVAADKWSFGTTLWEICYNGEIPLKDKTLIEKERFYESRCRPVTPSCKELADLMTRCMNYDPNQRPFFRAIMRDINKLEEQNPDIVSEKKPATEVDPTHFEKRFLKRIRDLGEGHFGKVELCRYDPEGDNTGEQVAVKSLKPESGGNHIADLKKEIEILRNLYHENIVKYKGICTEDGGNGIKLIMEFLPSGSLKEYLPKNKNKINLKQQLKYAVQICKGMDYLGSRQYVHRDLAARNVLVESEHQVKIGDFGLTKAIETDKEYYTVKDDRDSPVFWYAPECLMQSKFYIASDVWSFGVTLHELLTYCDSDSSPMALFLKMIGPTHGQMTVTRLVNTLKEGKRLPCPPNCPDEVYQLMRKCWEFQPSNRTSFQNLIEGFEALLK

As for `CC(=O)N1CCC(n2c(=O)n(C)c3cnc(Nc4cc5ccnnc5cc4C)nc32)CC1` [Example 1, 9-(1-acetylpiperidin-4-yl)-7-methyl-2-((7-methylcinnolin-6-yl)amino)-7,9-dihydro-8H-purin-8-one], the “JAK1 enz pIC50” value on JAK1 is under 5. For the same compound, at TTK, the “TTK enz pIC50” value came out at 5.9. On AURKA (Aurora A), the “AurA enz pIC50” value is on record as under 5.
With `CC(=O)N1CCC(n2c(=O)n(C)c3cnc(Nc4cc5nccnc5cc4C)nc32)CC1` [Example 2, 9-(1-acetylpiperidin-4-yl)-7-methyl-2-((7-methylquinoxalin-6-yl)amino)-7,9-dihydro-8H-purin-8-one], the “JAK1 enz pIC50” value at JAK1 is under 5. For the same compound, the “TTK enz pIC50” value on TTK came to 5.8. Moreover, at AURKA (Aurora A), the “AurA enz pIC50” value is reported as under 5.
For `CC(=O)N1CCC(n2c(=O)n(C)c3cnc(Nc4cc5cncnc5cc4C)nc32)CC1` [Example 3, 9-(1-acetylpiperidin-4-yl)-7-methyl-2-((7-methylquinazolin-6-yl)amino)-7,9-dihydro-8H-purin-8-one], the “JAK1 enz pIC50” value at JAK1 was under 5. For the same compound, the “TTK enz pIC50” value at TTK is 5.4. The “AurA enz pIC50” value at AURKA (Aurora A) is reported as under 5.
Take `CC(=O)N1CCC(n2c(=O)n(C)c3cnc(Nc4cc5ncc(C)nc5cc4C)nc32)CC1` [Example 4, 9-(1-acetylpiperidin-4-yl)-2-((2,7-dimethylquinoxalin-6-yl)amino)-7-methyl-7,9-dihydro-8H-purin-8-one]: on JAK1, the “JAK1 enz pIC50” value was under 5. In addition, on TTK, the “TTK enz pIC50” value stood at 6.0. For the same compound, at AURKA (Aurora A), the “AurA enz pIC50” value was under 5.
As to `CC(=O)N1CCC(n2c(=O)n(C)c3cnc(Nc4cc5nc(C)cnc5cc4C)nc32)CC1` [Example 5, 9-(1-acetylpiperidin-4-yl)-2-((3,7-dimethylquinoxalin-6-yl)amino)-7-methyl-7,9-dihydro-8H-purin-8-one], the “JAK1 enz pIC50” value on JAK1 is under 5. Moreover, at TTK, the “TTK enz pIC50” value was 5.3. Also, the “AurA enz pIC50” value at AURKA (Aurora A) is under 5.
Regarding `Cc1cc2ncccc2cc1Nc1ncc2c(n1)n([C@H]1CC[C@H](O)CC1)c(=O)n2C` [Example 6, 9-((1r,4r)-4-hydroxycyclohexyl)-7-methyl-2-((7-methylquinolin-6-yl)amino)-7,9-dihydro-8H-purin-8-one], the “JAK1 enz pIC50” value at JAK1 is on record as under 5. Also, the “TTK enz pIC50” value on TTK is on record as 7.2. On AURKA (Aurora A), the “AurA enz pIC50” value is on record as under 5.
Consider `Cc1cc2nnccc2cc1Nc1ncc2c(n1)n([C@H]1CC[C@H](O)CC1)c(=O)n2C` [Example 7, 9-((1r,4r)-4-hydroxycyclohexyl)-7-methyl-2-((7-methylcinnolin-6-yl)amino)-7,9-dihydro-8H-purin-8-one], for which the “JAK1 enz pIC50” value on JAK1 is under 5. For the same compound, the “TTK enz pIC50” value at TTK is 6.9. Also, on AURKA (Aurora A), the “AurA enz pIC50” value is listed as under 5.
Regarding `Cc1cc2nccc(C)c2cc1Nc1ncc2c(n1)n([C@H]1CC[C@H](O)CC1)c(=O)n2C` [Example 8, 2-((4,7-dimethylquinolin-6-yl)amino)-9-((1r,4r)-4-hydroxycyclohexyl)-7-methyl-7,9-dihydro-8H-purin-8-one], the IC50 on JAK1 was over 10 µM; on TTK, 0.631 µM; on AURKA (Aurora A), over 10 µM.
Consider `COc1ccnc2cc(C)c(Nc3ncc4c(n3)n([C@H]3CC[C@H](O)CC3)c(=O)n4C)cc12` [Example 9, 9-((1r,4r)-4-hydroxycyclohexyl)-2-((4-methoxy-7-methylquinolin-6-yl)amino)-7-methyl-7,9-dihydro-8H-purin-8-one], for which the “JAK1 enz pIC50” value at JAK1 is listed as under 5. Besides, the “TTK enz pIC50” value on TTK was determined as 6.1. Further, the “AurA enz pIC50” value on AURKA (Aurora A) was under 5.1.
As to `Cc1cc2nccnc2cc1Nc1ncc2c(n1)n([C@H]1CC[C@H](O)CC1)c(=O)n2C` [Example 10, 9-((1r,4r)-4-hydroxycyclohexyl)-7-methyl-2-((7-methylquinoxalin-6-yl)amino)-7,9-dihydro-8H-purin-8-one], the IC50 at JAK1 was over 10 µM; at TTK it was 0.398 µM; on AURKA (Aurora A), over 10 µM.
